One test deals with JMJD2C (Homo sapiens (Human), UniProt Q9H3R0). Nature of the test: In vitro enzyme inhibition assay for JMJD2C activity (TR-FRET). The test is classed as biochemical. The procedure:
This assay determines the ability of a test compound to inhibit JMJD2C demethylase activity. Baculovirus expressed JMJD2C (GenBank Accession #BC143571, AA 2-372) was purchased from BPS Bioscience (Cat#50105).
The ability of test compounds to inhibit the activity of JMJD2C was determined in 384-well plate format under the following reaction conditions: 0.3 nM JMJD2C, 300 nM H3K9me3-biotin labeled peptide (Anaspec cat #64360), 2 μM alpha-ketoglutaric acid in assay buffer of 50 mM HEPES, pH7.3, 0.005% Brij35, 0.5 mM TCEP, 0.2 mg/ml BSA, 50 μM sodium L-ascorbate, and 2 μM ammonium iron(II) sulfate. Reaction product was determined quantitatively by TR-FRET after the addition of detection reagent Phycolink Streptavidin-allophycocyanin (Prozyme) and Europium-anti-di-methylated histone H3 lysine 9 (H3K9me2) antibody (PerkinElmer) in the presence of 5 mM EDTA in LANCE detection buffer (PerkinElmer) at a final concentration of 50 nM and 1 nM, respectively.
The assay reaction was initiated by the following: 2 μl of the mixture of 900 nM H3K9me3-biotin labeled peptide and 6 μM alpha-ketoglutaric acid with 2 μl of 11-point serial diluted inhibitor in 3% DMSO were added to each well of the plate, followed by the addition of 2 μl of 0.9 nM JMJD2C to initiate the reaction. The reaction mixture was incubated at room temperature for 30 minutes, and terminated by the addition of 6 μl of 5 mM EDTA in LANCE detection buffer containing 100 nM Phycolink Streptavidin-allophycocyanin and 2 nM Europium-anti-H3K9me2 antibody. Plates were read by EnVisionMultilabel Reader in TR-FRET mode (excitation at 320 nm, emission at 615 nm and 665 nm) after 1 hour incubation at room temperature. A ratio was calculated (665/615) for each well and fitted to determine inhibition constant (IC50).

Test [1] relates to KYSE-150 esophageal carcinoma cell line. Nature of the test: In vitro cell-based assay: cellular proliferation via BrdU incorporation (ELISA). Also noted: species or system human. Particulars: Homo sapiens, KYSE-150, 168 hours compound incubation. The procedure:
The primary cellular assay for JMJD2C inhibition is an assay which measures cellular proliferation via Bromodeoxyuridine (BrdU) incorporation after 168 hours of compound incubation. Cell lines tested include the JMJD2C gene amplified cell line KYSE-150. This is a quantitative ELISA assay measuring DNA incorporation of BrdU during S-phase as a direct readout of cellular proliferation.
Assay Principle: This is a colorimetric immunoassay for the quantification of cell proliferation. Cells treated for 168 hours with test compounds are assayed for their ability to go through S-phase as a measure of their proliferative potential.
Assay Method: The human KYSE-150 (SMAD4 mut, TP53 mut) esophageal carcinoma cell line was seeded at 2,000 cells/well on a 96-well tissue culture treated plate. After an overnight incubation, cells were treated with compound in an 11-point dilution series with final concentrations ranging from 100 μM to 2 nM. Cells were then incubated in the presence of compound for 168 hours. After compound incubation the cells were assayed using a BrdU Cell Proliferation ELISA (Roche). The cells were first incubated with BrdU labeling reagent for 2 hours. After 2 hours, the BrdU incorporated cells were fixed and denatured, probed with an anti-BrdU-Peroxidase antibody for 1.5 hours and washed. Finally, a tetramethylbenzidine peroxidase substrate was added to each well for 15 minutes followed by a H2SO4 stop solution. The plate was read at 450 nm, and the raw optical density data was transferred into XLFit (IDBS) for IC50 calculation using the formula: fit=(D+((Vmax*(x^n))/((x^n)+(Km^n))))
(Incorporation of labelled thymidine or its analogues reports DNA synthesis.)

Experimental findings from patent US10106534B2 (CELGENE QUANTICEL RESEARCH, INC., priority 2014, dated 2018) are described below.

For orientation: IC50 means the concentration that gives 50% inhibition. A higher IC50 goes with lower potency.

Sequence of JMJD2C (Q9H3R0 2-372): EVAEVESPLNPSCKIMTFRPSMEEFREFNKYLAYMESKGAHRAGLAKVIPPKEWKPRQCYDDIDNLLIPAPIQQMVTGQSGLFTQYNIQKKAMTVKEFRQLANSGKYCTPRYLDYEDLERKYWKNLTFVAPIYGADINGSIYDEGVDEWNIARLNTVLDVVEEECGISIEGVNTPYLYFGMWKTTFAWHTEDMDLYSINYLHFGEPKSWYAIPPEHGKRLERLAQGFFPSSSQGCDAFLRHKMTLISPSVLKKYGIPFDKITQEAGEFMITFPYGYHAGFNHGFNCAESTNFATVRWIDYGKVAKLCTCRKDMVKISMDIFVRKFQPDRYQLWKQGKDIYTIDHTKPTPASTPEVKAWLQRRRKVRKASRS

Take `O=C(O)c1ccncc1NC[C@@H]1CCCc2cc(N3CCCC3)ccc21` [Example 106, 3-({[(1R)-6-(pyrrolidin-1-yl)-1,2,3,4-tetrahydronaphthalen-1-yl]methyl}amino)pyridine-4-carboxylic acid]: the IC50 (against JMJD2C; in test [1]) was 100 to 1000 nM each time.

As for `Cc1ccccc1Oc1ccc2c(c1)CCC[C@H]2CNc1cnccc1C(=O)O` [Example 58, 3-({[(1R)-6-(2-methylphenoxy)-1,2,3,4-tetrahydronaphthalen-1-yl]methyl}amino)pyridine-4-carboxylic acid], the IC50 at JMJD2C was 100 to 1000 nM; in test [1] it was no more than 100 nM.

`CN(c1ccc(N2CC(F)(F)C2)cc1)c1ccc2c(c1)OCC[C@H]2CNc1cnccc1C(=O)O` [Example 196, 3-({[(4R)-7-{[4-(3,3-difluoroazetidin-1-yl)phenyl](methyl)amino}-3,4-dihydro-2H-1-benzopyran-4-yl]methyl}amino)pyridine-4-carboxylic acid]: the figures for the IC50 (against JMJD2C; in test [1]) were 100 to 1000 nM and no more than 100 nM, respectively.

For `Cc1ccccc1-c1ccc2c(c1)OCC[C@H]2CNc1cnccc1C(=O)O` [Example 101, 3-({[(4R)-7-(2-methylphenyl)-3,4-dihydro-2H-1-benzopyran-4-yl]methyl}amino)pyridine-4-carboxylic acid], the IC50 on JMJD2C is 100 to 1000 nM; in test [1] it was no more than 100 nM.

Turning to `COCCN(c1ccc(C2CC2)cc1)c1ccc2c(c1)CCC[C@H]2CNc1cnccc1C(=O)O` [Example 163, 3-({[(1R)-6-[(4-cyclopropylphenyl)(2-methoxyethyl)amino]-1,2,3,4-tetrahydronaphthalen-1-yl]methyl}amino)pyridine-4-carboxylic acid], the IC50 against JMJD2C is 1000 to 10000 nM; in test [1], no more than 100 nM.

For `Cc1ccccc1Sc1ccc2c(c1)OCC[C@H]2CNc1cnccc1C(=O)O` [Example 51, 3-({[(4R)-7-[(2-methylphenyl)sulfanyl]-3,4-dihydro-2H-1-benzopyran-4-yl]methyl}amino)pyridine-4-carboxylic acid], the IC50 is 100 to 1000 nM on JMJD2C and 1000 to 10000 nM in test [1].

With `COc1ccc(N(C)c2ccc3c(c2)OCC[C@H]3CNc2cnccc2C(=O)O)cc1` [Example 178, 3-({[(4R)-7-[(4-methoxyphenyl)(methyl)amino]-3,4-dihydro-2H-1-benzopyran-4-yl]methyl}amino)pyridine-4-carboxylic acid], the IC50 (on JMJD2C; in test [1]) was no more than 100 nM throughout.

As to `COc1cccc(N(C)c2ccc3c(c2)CCC[C@H]3CNc2cnccc2C(=O)O)c1` [Example 150, 3-({[(1R)-6-[(3-methoxyphenyl)(methyl)amino]-1,2,3,4-tetrahydronaphthalen-1-yl]methyl}amino)pyridine-4-carboxylic acid], the IC50 was 100 to 1000 nM at JMJD2C and no more than 100 nM in test [1].

In the case of `N#Cc1ccccc1-c1ccc2c(c1)OCC[C@H]2CNc1cnccc1C(=O)O` [Example 124, 3-({[(4R)-7-(2-cyanophenyl)-3,4-dihydro-2H-1-benzopyran-4-yl]methyl}amino)pyridine-4-carboxylic acid], the IC50 against JMJD2C lay within 100 to 1000 nM; in test [1], 1000 to 10000 nM.

For the compound `CN(c1ccc2c(c1)CCC[C@H]2CNc1cnccc1C(=O)O)c1ccccc1F` [Example 6, 3-({[(1R)-6-[(2-fluorophenyl)(methyl)amino]-1,2,3,4-tetrahydronaphthalen-1-yl]methyl}amino)pyridine-4-carboxylic acid], the IC50 against JMJD2C was 100 to 1000 nM; in test [1], no more than 100 nM.

As to `O=C(O)c1ccncc1NC[C@@H]1CCOc2cc(Oc3ccccc3)ccc21` [Example 48, 3-({[(4R)-7-phenoxy-3,4-dihydro-2H-1-benzopyran-4-yl]methyl}amino)pyridine-4-carboxylic acid], the IC50 on JMJD2C lay in the range of 100 to 1000 nM; in test [1], 1000 to 10000 nM.

Regarding `CN(c1ccc2c(c1)CCC[C@H]2CNc1cnccc1C(=O)O)c1cccs1` [Example 144, 3-({[(1R)-6-[methyl(thiophen-2-yl)amino]-1,2,3,4-tetrahydronaphthalen-1-yl]methyl}amino)pyridine-4-carboxylic acid], the IC50 is 100 to 1000 nM at JMJD2C and no more than 100 nM in test [1].

Regarding `CN(c1ccc(C#N)cc1)c1ccc2c(c1)OCC[C@H]2CNc1cnccc1C(=O)O` [Example 119, 3-({[(4R)-7-[(4-cyanophenyl)(methyl)amino]-3,4-dihydro-2H-1-benzopyran-4-yl]methyl}amino)pyridine-4-carboxylic acid], the IC50 (on JMJD2C; in test [1]) was 100 to 1000 nM throughout.

In the case of `Cc1cccc(S(=O)(=O)c2ccc3c(c2)CCC[C@H]3CNc2cnccc2C(=O)O)c1` [Example 86, 3-({[(1R)-6-(3-methylbenzenesulfonyl)-1,2,3,4-tetrahydronaphthalen-1-yl]methyl}amino)pyridine-4-carboxylic acid], the IC50 on JMJD2C is 100 to 1000 nM; in test [1], greater than 10000 nM.

Consider `C[C@H](O)c1ccc(N(C)c2ccc3c(c2)CCC[C@H]3CNc2cnccc2C(=O)O)cc1` (single isomer, unassigned) [Example 169], for which the IC50 in test [1] is no more than 100 nM.

In the case of `O=C(O)c1ccncc1NC[C@@H]1CCOc2cc(C3CCCCC3)ccc21` [Example 35, 3-({[(4R)-7-cyclohexyl-3,4-dihydro-2H-1-benzopyran-4-yl]methyl}amino)pyridine-4-carboxylic acid], in test [1], the IC50 lay in the range of 1000 to 10000 nM.

`O=C(O)c1ccncc1NC[C@H]1CCOc2cc(Oc3ccccc3)ccc21` [Example 47, 3-({[(4S)-7-phenoxy-3,4-dihydro-2H-1-benzopyran-4-yl]methyl}amino)pyridine-4-carboxylic acid]: on JMJD2C, the IC50 lay in the range of 1000 to 10000 nM.

In test [1], `C[C@@H](O)c1ccc(N(C)c2ccc3c(c2)CCC[C@H]3CNc2cnccc2C(=O)O)cc1` (single isomer, unassigned) [Example 168] returned an IC50 of no more than 100 nM.

In turn, `O=C(O)c1ccncc1NC[C@H]1CCCc2cc(OC(F)F)ccc21` [Example 60, 3-({[(1S)-6-(difluoromethoxy)-1,2,3,4-tetrahydronaphthalen-1-yl]methyl}amino)pyridine-4-carboxylic acid] yielded an IC50 against JMJD2C of 1000 to 10000 nM.

Compound `COc1ccc(Cl)c(-c2ccc3c(c2)OCC[C@H]3CNc2cnccc2C(=O)O)c1` [Example 107, 3-({[(4R)-7-(2-chloro-5-methoxyphenyl)-3,4-dihydro-2H-1-benzopyran-4-yl]methyl}amino)pyridine-4-carboxylic acid] registered an IC50 against JMJD2C of 100 to 1000 nM.

With `CN(c1ccc(N2CC(F)(F)C2)cc1)c1ccc2c(c1)CCC[C@H]2CNc1cnccc1C(=O)O` [Example 195, 3-({[(1R)-6-{[4-(3,3-difluoroazetidin-1-yl)phenyl](methyl)amino}-1,2,3,4-tetrahydronaphthalen-1-yl]methyl}amino)pyridine-4-carboxylic acid], on JMJD2C, the IC50 lay within 100 to 1000 nM.

At JMJD2C, `COc1cc(F)ccc1-c1ccc2c(c1)OCC[C@H]2CNc1cnccc1C(=O)O` [Example 118, 3-({[(4R)-7-(4-fluoro-2-methoxyphenyl)-3,4-dihydro-2H-1-benzopyran-4-yl]methyl}amino)pyridine-4-carboxylic acid] gave an IC50 of 100 to 1000 nM.

`O=C(O)c1ccncc1NCC1CCOc2cc(N(CC(F)(F)F)c3ccccc3)ccc21` (centres unmarked) [Example 129, 3-[({7-[phenyl(2,2,2-trifluoroethyl)amino]-3,4-dihydro-2H-1-benzopyran-4-yl}methyl)amino]pyridine-4-carboxylic acid] came in with an IC50 against JMJD2C of 1000 to 10000 nM.

For `O=C(O)c1ccncc1NC[C@H]1CCCc2cc(S(=O)(=O)c3ccccc3)ccc21` [Example 81, 3-({[(1S)-6-(benzenesulfonyl)-1,2,3,4-tetrahydronaphthalen-1-yl]methyl}amino)pyridine-4-carboxylic acid], the IC50 at JMJD2C lay in the range of 100 to 1000 nM.
